Measurements published in patent publication EP0144459A1, “Prostaglandins, their preparation and pharmaceutical compositions” (Dr. Willmar Schwabe GmbH & Co., priority 1983, dated 1985).

Columns and labels:
[1] = system: isolierte Kaninchenaortastreifen; test: Contractile effect on isolated rabbit aorta strips, dose-response compared with PGF2α (method of J.R. Vane); design: species or system Kaninchen; conditions: isolated rabbit aorta strip
Description: Zum Beispiel wurde die kontrahierende Wirkung von (15R)-12-epi-PGF2ß an einem isolierten Kaninchenaortastreifen mit der des natürlichen PGF2α verglichen. […] Die Wirkung dieser erfindungsgemäßen Verbindung setzt bei etwa 3-10^-6M/lein (vgl. Abb. 1). In dieser Konzentration ist das (15-S)-Epimere des 12 epi-PGF2ßunwirksam. [drawing]
Abb. 1 Kontraktile Wirkung von (15R)-12-epi-PGF2β (x) und PGF2α (.) auf isolierte Kaninchenaortastreifen in Abhängigkeit von der Dosis. (c = Konzentration; K = Kontraktionskraft) (Gemessen nach: J.R. Vane, Br.J. Pharmacol. Chemother. 23, 360-373 (1964)).

[2] = system: Langendorff-Herz; isolierte Aorta - Tracheen- und Fundus-Streifen; Kreislauf von Meerschweinchen und Hund; test: Battery of further pharmacological tests compared with PGF2α: Langendorff heart (coronary flow, heart rate, inotropy); isolated aorta, trachea and fundus strips; circulation of guinea pig and dog (blood pressure, heart rate); conditions: in all tests of the battery, compared with natural PGF2α
Description: In mehreren anderen Tests wurden (15R)- und (15S)-12-epi-PGF2ß sowie die beiden analogen erfindungsgemäßen 15-Mithylverbindungen mit dem bekannten PGF2α verßlichen. […] Die 15-Methyl-Derivate der 12-epi-PGF2β zeigen analoge Unterschiede der Wirkungsqualität der jeweiligen 15Rund l5S-Epimeren.

SMILES | Wirkungsstärke (kontrahierende Wirkung) im Vergleich zu PGF2α ([1]; dose-response curve runs parallel to that of PGF2α) | minimal effective concentration ([1]; threshold concentration of the contractile effect (Abb. 1), read-out: Konzentration, bei der die kontrahierende Wirkung einsetzt) [µM] | Wirkungsqualität [2] | kontrahierende Wirkung ([1]; at the concentration of about 3-10^-6M/l)
CCCCC[C@@H](O)/C=C/[C@H]1[C@@H](C/C=C\CCCC(=O)O)[C@H](O)C[C@H]1O [(15R)-12-epi-PGF2β, 15R-12-epi-PGF2β] | ca. eine Zehnerpotenz niedrigeren Wirkungsstärke | ~3 | parallel zu den Wirkungen des natürlichen PGF2α | 
CCCCC[C@H](O)/C=C/[C@H]1[C@@H](C/C=C\CCCC(=O)O)[C@H](O)C[C@H]1O [(15S)-12-epi-PGF2β, 12-epi-PGF2β] |  |  | PGE2-ähnliche Wirkung | unwirksam
